According to the NIST ThermoML archive (doi:10.1016/j.jct.2009.04.019):
Several values for one entry are separate records, joined by “and”; a condition that tells them apart may be missing. Identical values can stand only once.

Settings: Liquid, Transpiration method

C[C@H](O)CO [(+)-(S)-1,2-propanediol]
Settings | vapor or sublimation pressure
283.5 K | 0.00427 kPa
288.2 K | 0.00685 kPa
293.5 K | 0.01187 kPa and 0.00968 kPa
297.4 K | 0.01371 kPa
298.2 K | 0.01924 kPa
298.4 K | 0.01891 kPa
301.3 K | 0.025 kPa
301.4 K | 0.01968 kPa
303.3 K | 0.02341 kPa
303.4 K | 0.02968 kPa
305.4 K | 0.02776 kPa
306.3 K | 0.03848 kPa
306.4 K | 0.0369 kPa
309.3 K | 0.04816 kPa
310.4 K | 0.05059 kPa and 0.04222 kPa and 0.04205 kPa
312.3 K | 0.06434 kPa and 0.06424 kPa
313.2 K | 0.06711 kPa
313.3 K | 0.06784 kPa
313.4 K | 0.05485 kPa
315.4 K | 0.06624 kPa
316.2 K | 0.09048 kPa
316.3 K | 0.08971 kPa and 0.0869 kPa
318.3 K | 0.09934 kPa
318.4 K | 0.08522 kPa
319.3 K | 0.113 kPa
320.4 K | 0.1173 kPa and 0.09922 kPa
320.5 K | 0.09891 kPa
321.3 K | 0.1276 kPa
322.3 K | 0.1391 kPa
322.5 K | 0.1397 kPa
323.4 K | 0.1284 kPa
323.5 K | 0.1563 kPa and 0.1318 kPa
324.5 K | 0.1349 kPa
325.3 K | 0.1747 kPa and 0.1406 kPa
325.4 K | 0.1734 kPa
326.4 K | 0.1847 kPa
326.5 K | 0.1504 kPa
327.3 K | 0.1676 kPa
327.4 K | 0.1988 kPa
328.3 K | 0.2178 kPa
328.4 K | 0.184 kPa
328.5 K | 0.1824 kPa
328.6 K | 0.2155 kPa
329.5 K | 0.2399 kPa
331.3 K | 0.2757 kPa
331.4 K | 0.2346 kPa
333.3 K | 0.2616 kPa
335.4 K | 0.303 kPa
338.4 K | 0.3685 kPa
